From ChEMBL document CHEMBL5291721, “A preclinical secondary pharmacology resource illuminates target-adverse drug reaction associations of marketed drugs” (Nat Commun, 2023)

Assays:
D(1A) dopamine receptor = D(1A) dopamine receptor (Homo sapiens, UniProt P21728)
Histamine H3 receptor = Histamine H3 receptor (Homo sapiens, UniProt Q9Y5N1)
[1] = biological target: T1, Amine oxidase [flavin-containing] A (Homo sapiens, UniProt P21397); format: functional
T1 sequence (P21397 whole entry): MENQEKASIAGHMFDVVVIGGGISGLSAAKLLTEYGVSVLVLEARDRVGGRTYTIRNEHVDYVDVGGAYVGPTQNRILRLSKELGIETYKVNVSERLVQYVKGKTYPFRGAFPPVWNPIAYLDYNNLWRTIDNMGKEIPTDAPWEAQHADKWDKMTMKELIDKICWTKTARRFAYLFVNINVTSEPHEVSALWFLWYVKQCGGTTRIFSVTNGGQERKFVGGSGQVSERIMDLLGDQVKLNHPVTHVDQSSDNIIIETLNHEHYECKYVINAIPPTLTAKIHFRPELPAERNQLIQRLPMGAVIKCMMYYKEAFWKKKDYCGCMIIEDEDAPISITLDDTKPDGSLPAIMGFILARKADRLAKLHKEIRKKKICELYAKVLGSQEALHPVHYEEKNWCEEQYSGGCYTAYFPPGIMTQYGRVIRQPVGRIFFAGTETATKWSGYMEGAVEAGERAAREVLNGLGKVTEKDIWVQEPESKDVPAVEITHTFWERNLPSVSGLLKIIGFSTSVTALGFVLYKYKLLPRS

Progesterone receptor = biological target: T2, Progesterone receptor (Homo sapiens, UniProt P06401)
T2 sequence (P06401 whole entry): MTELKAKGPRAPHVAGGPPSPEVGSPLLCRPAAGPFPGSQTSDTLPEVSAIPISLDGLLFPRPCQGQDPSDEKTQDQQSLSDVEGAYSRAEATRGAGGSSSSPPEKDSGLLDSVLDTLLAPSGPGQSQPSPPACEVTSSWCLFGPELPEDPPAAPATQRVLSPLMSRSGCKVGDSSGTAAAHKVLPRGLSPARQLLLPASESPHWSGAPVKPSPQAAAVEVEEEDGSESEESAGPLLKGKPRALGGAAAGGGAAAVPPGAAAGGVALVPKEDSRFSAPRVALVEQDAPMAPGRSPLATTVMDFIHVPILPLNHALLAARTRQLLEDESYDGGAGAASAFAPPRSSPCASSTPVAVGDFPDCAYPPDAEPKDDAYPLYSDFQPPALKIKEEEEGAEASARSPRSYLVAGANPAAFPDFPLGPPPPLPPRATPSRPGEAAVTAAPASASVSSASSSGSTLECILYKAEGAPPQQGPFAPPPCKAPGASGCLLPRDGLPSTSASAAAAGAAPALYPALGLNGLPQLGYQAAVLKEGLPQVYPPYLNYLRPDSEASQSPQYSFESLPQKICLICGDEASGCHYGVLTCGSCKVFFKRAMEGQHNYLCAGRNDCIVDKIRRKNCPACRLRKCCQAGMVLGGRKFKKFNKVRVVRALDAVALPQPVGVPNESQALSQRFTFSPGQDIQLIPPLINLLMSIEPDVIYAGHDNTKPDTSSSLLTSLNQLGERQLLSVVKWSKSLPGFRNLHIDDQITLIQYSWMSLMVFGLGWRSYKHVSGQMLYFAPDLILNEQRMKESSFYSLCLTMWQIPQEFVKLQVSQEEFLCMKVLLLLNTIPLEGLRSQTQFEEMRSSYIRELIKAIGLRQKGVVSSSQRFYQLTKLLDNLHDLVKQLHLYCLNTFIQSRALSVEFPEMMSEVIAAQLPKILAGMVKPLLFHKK

[2] = biological target: T3, Prostaglandin G/H synthase 1 (Homo sapiens, UniProt P23219); format: functional
T3 sequence (P23219 whole entry): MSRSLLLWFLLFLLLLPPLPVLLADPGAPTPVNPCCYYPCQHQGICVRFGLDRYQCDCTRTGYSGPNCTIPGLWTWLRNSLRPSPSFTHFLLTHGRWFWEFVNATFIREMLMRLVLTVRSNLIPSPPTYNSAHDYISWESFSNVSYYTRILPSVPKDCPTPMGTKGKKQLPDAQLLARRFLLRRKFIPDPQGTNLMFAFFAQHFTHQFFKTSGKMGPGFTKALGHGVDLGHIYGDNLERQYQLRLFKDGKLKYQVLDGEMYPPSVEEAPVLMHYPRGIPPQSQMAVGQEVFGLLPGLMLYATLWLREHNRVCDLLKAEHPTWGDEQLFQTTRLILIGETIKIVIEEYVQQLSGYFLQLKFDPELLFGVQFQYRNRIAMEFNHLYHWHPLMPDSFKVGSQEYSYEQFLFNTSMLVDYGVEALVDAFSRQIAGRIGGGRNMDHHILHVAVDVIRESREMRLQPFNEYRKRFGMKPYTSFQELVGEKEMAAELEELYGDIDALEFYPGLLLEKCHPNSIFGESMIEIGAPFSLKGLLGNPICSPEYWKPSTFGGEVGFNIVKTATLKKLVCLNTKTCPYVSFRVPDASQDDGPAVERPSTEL

[3] = biological target: T3, Prostaglandin G/H synthase 1; format: functional; remark: listed apart in the source
[4] = biological target: Sodium-dependent noradrenaline transporter (Homo sapiens, UniProt P23975)
Chain of Sodium-dependent noradrenaline transporter (P23975 whole entry): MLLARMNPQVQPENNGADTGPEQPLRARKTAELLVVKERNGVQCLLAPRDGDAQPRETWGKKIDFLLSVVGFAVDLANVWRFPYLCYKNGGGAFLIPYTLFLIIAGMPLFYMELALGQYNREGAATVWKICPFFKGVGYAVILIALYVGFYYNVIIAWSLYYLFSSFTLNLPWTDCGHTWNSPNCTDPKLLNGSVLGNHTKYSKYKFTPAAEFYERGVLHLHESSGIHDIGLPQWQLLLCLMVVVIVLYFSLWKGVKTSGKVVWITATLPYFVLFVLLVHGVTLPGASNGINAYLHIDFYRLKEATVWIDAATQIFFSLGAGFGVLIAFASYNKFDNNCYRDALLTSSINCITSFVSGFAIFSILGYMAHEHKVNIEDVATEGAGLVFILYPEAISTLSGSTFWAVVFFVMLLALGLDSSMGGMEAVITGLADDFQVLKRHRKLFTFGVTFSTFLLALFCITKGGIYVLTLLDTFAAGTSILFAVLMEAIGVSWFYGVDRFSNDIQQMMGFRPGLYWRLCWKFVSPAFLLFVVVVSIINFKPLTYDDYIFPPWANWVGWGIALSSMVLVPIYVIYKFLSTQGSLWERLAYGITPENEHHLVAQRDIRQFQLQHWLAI

Thromboxane A2 receptor = biological target: T4, Thromboxane A2 receptor (Homo sapiens, UniProt P21731); format: functional, cell-based
T4 sequence (P21731 whole entry): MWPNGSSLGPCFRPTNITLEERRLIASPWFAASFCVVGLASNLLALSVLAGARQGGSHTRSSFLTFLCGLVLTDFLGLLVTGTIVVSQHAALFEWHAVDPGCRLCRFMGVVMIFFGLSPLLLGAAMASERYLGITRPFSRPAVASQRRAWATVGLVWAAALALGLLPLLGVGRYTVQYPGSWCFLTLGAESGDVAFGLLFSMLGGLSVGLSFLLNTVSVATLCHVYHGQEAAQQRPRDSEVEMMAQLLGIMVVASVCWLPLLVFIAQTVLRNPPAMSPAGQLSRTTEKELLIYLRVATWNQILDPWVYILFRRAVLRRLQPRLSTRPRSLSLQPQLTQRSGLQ

Estrogen receptor = biological target: T5, Estrogen receptor (Homo sapiens, UniProt P03372); format: functional
T5 sequence (P03372 whole entry): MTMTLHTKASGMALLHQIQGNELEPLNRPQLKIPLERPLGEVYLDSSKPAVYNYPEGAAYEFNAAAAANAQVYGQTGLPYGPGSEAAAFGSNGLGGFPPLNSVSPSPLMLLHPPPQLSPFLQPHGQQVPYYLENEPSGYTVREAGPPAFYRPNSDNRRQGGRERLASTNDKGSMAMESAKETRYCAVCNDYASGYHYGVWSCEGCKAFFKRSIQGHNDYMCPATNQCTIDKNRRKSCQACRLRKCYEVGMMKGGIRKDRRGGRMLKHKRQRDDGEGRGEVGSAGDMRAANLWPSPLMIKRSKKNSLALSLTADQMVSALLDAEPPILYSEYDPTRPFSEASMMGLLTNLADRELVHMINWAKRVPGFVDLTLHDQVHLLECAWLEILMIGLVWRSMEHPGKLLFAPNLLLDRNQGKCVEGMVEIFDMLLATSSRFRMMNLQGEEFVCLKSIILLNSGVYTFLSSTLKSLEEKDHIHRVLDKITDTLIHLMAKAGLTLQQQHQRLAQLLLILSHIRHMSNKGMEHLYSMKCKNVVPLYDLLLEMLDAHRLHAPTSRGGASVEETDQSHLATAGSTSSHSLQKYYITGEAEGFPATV
Note: assay procedure not described here.

Chain of Histamine H3 receptor (Q9Y5N1 whole entry): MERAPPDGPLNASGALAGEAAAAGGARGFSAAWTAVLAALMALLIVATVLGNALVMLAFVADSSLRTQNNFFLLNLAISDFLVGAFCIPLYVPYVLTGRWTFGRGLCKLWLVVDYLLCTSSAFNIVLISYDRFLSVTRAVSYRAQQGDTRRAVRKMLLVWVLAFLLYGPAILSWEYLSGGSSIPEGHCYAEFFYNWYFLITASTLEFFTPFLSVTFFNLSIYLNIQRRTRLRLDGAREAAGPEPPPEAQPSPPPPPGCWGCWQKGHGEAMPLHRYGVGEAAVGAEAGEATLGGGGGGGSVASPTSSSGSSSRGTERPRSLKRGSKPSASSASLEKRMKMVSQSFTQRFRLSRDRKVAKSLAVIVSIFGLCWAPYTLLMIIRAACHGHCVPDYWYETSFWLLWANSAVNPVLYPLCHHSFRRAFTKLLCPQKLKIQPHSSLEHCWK
Chain of D(1A) dopamine receptor (P21728 whole entry): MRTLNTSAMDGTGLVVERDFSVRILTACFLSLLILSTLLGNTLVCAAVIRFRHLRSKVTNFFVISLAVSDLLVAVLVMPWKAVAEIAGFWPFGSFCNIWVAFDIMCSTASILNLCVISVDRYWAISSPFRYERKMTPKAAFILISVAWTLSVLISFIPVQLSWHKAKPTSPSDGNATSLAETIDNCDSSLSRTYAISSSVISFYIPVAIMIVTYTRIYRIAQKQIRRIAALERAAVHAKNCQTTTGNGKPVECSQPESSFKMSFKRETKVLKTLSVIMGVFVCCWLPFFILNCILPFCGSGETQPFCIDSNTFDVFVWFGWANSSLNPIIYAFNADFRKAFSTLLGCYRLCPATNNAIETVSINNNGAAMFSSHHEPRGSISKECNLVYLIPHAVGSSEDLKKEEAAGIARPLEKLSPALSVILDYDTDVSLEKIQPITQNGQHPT

Row | SMILES | AC50 (D(1A) dopamine receptor) [µM] | AC50 (Histamine H3 receptor) [µM] | AC50 [1] [µM] | AC50 (Progesterone receptor) [µM] | AC50 [2] [µM] | AC50 [3] [µM] | AC50 [4] [µM] | AC50 (Thromboxane A2 receptor) [µM] | AC50 (Estrogen receptor) [µM]
1 | CCN(CC)CCCC(C)Nc1c2ccc(Cl)cc2nc2ccc(OC)cc12 (centres undefined) [QUINACRINE] | 12.3 | 0.693 | > 30 | > 10 | > 30 | > 30 | 6.92 | > 1 | 
2 | CCOC(=O)[C@@H](N)Cc1ccc(-c2cc(O[C@H](c3ccc(Cl)cc3-n3ccc(C)n3)C(F)(F)F)nc(N)n2)cc1 [TELOTRISTAT ETHYL] |  |  |  |  |  |  |  |  | > 30
